For 15 molecules, IC50 and EC50 results are on record in patent publication US20100009973A1, “Integrase Inhibitors 3” (AVEXA LIMITED, priority 2006, published 2010).

For one assay, the target named is T1, HIV integrase (Human immunodeficiency virus type 1 group M subtype B, UniProt P04585). Kind of assay: Strand transfer specific assay. It counts as biochemical. Conditions: Table 8 cells marked (ST) / (ST assay): strand transfer specific. The protocol: (§1) A combined 3′-processing/strand transfer assay procedure similar to that published (Ovenden et al. Phytochemistry. 2004 December; 65(24):3255-9.) was used. This assay was adapted to a 96 well plate format. Briefly, 400 ng of […] is incubated with 30 nM substrate DNA, consisting of annealed U5 LTR sequence oligonucleotides tagged with Digoxigenin (DIG; 5′-[…]-DIG-3′) or biotin (5′-Bio-[…]-3′) so that each substrate has either a DIG or Bio tag on opposite strands. Reactions are carried out for 2 hrs at 37° C., products generated as a result of 3′processing and strand transfer activity are bound to streptavidin plates and detected with using anti-DIG-alkaline phosphatase conjugate and p-nitro phenyl phosphate substrate.
The strand transfer specific assay is of similar format to that of the 3′processing/strand transfer combined assay except that it uses a biotinylated substrate that represents a pre-processed LTR end (5′-Bio-[…]-3′).
As usually defined, the IC50 is the concentration that inhibits the measured activity by half. `Cc1cc(-c2cc(-c3ccc(N4CCOCC4)cc3)nc(OCc3ccc(C(=O)O)cc3Br)c2C#N)on1` [compound 15300]: the IC50 is < 10 µM.
Still for that read-out and setting: with `CCOc1cnc(-c2cc(-c3ccc(N4CCOCC4)cc3)nc(OCc3ccc(C(=O)O)cc3Br)c2C#N)o1` [compound 15303] the figure was < 10 µM; with `N#Cc1c(-c2oncc2C(=O)O)cc(-c2ccc(N3CCOCC3)cc2)nc1OCc1ccc(C(=O)O)s1` [compound 15435], < 10 µM; with `CCOc1cnc(-c2cc(-c3ccc(N4CCOCC4)cc3)nc(OCc3sc(C(=O)O)cc3C#N)c2C#N)o1` [compound 15424], < 10 µM.

The next assay deals with HIV. Kind of assay: Inhibition of HIV replication (extracellular p24). It counts as cell-based. Conditions: Human immunodeficiency virus 1; concentration inhibiting HIV p24 production to 50% of no drug controls. The protocol:
Cells are seeded into 96 well microtitre plates at 50,000 cells per 50 ul per well in RF-10 containing 2 μg/mL polybrene (RF-10/2). Compounds are prepared to 4× final concentration in RF-10/2, and 30 μL added to cells. Virus (40 μL in RF-10/2 containing 1600 pfu) is added to each well or 40 μL RF-10/2 for negative controls and for assaying compound cytotoxicity. After 24 hrs, an additional 90 μL of media or media containing 1× compound is added to each well. At 4 days post infection, 100 μL of media is removed from each well and replaced with 100 μl of fresh media with or without compound. Forty eight hours later supernatants are harvested and levels of extracellular p24 determined. Supernatants are diluted 1 in 10,000 and p24 levels assayed using the Vironostika p24 assay kit. EC50 is calculated as the concentration required to inhibit HIV p24 production to 50% that of no drug controls.
In general, EC50 refers to the midpoint of the concentration-response curve. A higher EC50 goes with weaker potency. In the case of `N#Cc1c(-c2ccoc2)cc(-c2ccc(N3CCOCC3)cc2)nc1OCc1ccc(C(=O)O)s1` [compound 14483], the concentration giving a half-maximal response (EC50) was < 10 µM.

Another assay concerns the target T1, HIV integrase. Kind of assay: 3'processing/strand transfer combined assay. It counts as biochemical.
Settings: not given
The protocol: as §1
In the case of `N#Cc1c(-c2ccoc2)cc(-c2ccc(N3CCOCC3)cc2)nc1OCc1ccc(C(=O)O)s1` [compound 14483], the concentration for half-maximal inhibition (IC50) was in the range of 10 to 50 µM.

Still in this assay, the particulars now being: Table 8 cells that name no assay; taken as the 3'processing/strand transfer combined assay; read-out: IC50.
For the molecule `Cc1cc(C(=O)O)ccc1COc1nc(-c2ccc(N3CCOCC3)cc2)cc(-c2ccoc2)c1C#N` [compound 14499], the half-inhibitory concentration (IC50) is < 10 µM.
On the same count and under the same terms, with `N#Cc1c(-c2ccoc2)cc(-c2ccc(N3CCOCC3)cc2)nc1OCc1nc(C(=O)O)cs1` [compound 14693] the figure was < 10 µM; with `N#Cc1cc(C(=O)O)sc1COc1nc(-c2ccc(N3CCOCC3)cc2)cc(-c2ccoc2)c1C#N` [compound 14905], < 10 µM.
Still for that read-out and setting: the figure for `N#Cc1c(-c2ccoc2)cc(-c2ccc(N3CCOCC3)cc2)nc1OCc1nc(C(=O)O)co1` [compound 14761] is 10 to 50 µM; for `N#Cc1c(-c2ccoc2)cc(-c2ccc(N3CCOCC3)cc2)nc1OCc1ccc(C(=O)O)cc1` [compound 14353] it is < 10 µM; for `N#Cc1c(-c2ccoc2)cc(-c2ccc(N3CCOCC3)cc2)nc1OCc1c(C(=O)O)csc1Br` [compound 14906] it is < 10 µM.
On the same count and under the same terms, the figure for `Cc1cc(-c2cc(-c3ccc(N4CCOCC4)cc3)nc(OCc3ccc(C(=O)O)s3)c2C#N)on1` [compound 14959] is 10 to 50 µM; for `CCOc1cnc(-c2cc(-c3ccc(N4CCOCC4)cc3)nc(OCc3ccsc3C(=O)O)c2C#N)o1` [compound 14963] it is 10 to 50 µM; for `CCOc1cnc(-c2cc(-c3ccc(N4CCOCC4)cc3)nc(OCc3csc(C(=O)O)c3)c2C#N)o1` [compound 15044] it is 10 to 50 µM.
As to `Cc1cc(-c2cc(-c3ccc(N4CCOCC4)cc3)nc(OCc3csc(C(=O)O)c3)c2C#N)on1` [compound 15045], the IC50 is < 10 µM.
